According to paper PMC11157767 (Molecular Cancer, 2024):

Test system: TFG-MET allograft tumors
Experiment: RNA-sequencing, differential expression and GSEA of TFG-MET allograft tumors
Assay type: in vivo, mouse
Conditions: GSEA CAP vs Veh, C5 GO CC
Procedure: Error bars display standard error of mean, statistical significance was determined using t-test analysis. (****;p<0.0001, ***;p<0.001, **;p<0.01, *;p<0.05). […] Each dot represents an individual replicate. Error bars display standard error of the mean.
Each dot represents one gene.

## CNC(=O)c1ccc(-c2cnc3ncc(Cc4ccc5ncccc5c4)n3n2)cc1F [Capmatinib]
Padj 0.00985351
  NES GOCC_U12_TYPE_SPLICEOSOMAL_COMPLEX: -1.841
Padj 0.00993117
  NES GOCC_ENDOCYTIC_VESICLE_MEMBRANE: 1.48
Padj 0.0105942
  NES GOCC_MAIN_AXON: 1.71
Padj 0.0106966
  NES GOCC_CILIARY_TIP: 1.78
Padj 0.0123456
  NES GOCC_CILIARY_BASAL_BODY: 1.449
Padj 0.0128749
  NES GOCC_RNA_POLYMERASE_III_COMPLEX: -1.798
Padj 0.0130428
  NES GOCC_CATION_CHANNEL_COMPLEX: 1.45
Padj 0.0138609
  NES GOCC_PROTON_TRANSPORTING_TWO_SECTOR_ATPASE_COMPLEX_CATALYTIC_DOMAIN: 1.892
Padj 0.0141171
  NES GOCC_SPECIFIC_GRANULE_MEMBRANE: 1.543
  NES GOCC_SWI_SNF_SUPERFAMILY_TYPE_COMPLEX: -1.631
Padj 0.015809
  NES GOCC_U1_SNRNP: -1.765
Padj 0.0162979
  NES GOCC_MICROBODY: 1.4892
Padj 0.0163882
  NES GOCC_CHAPERONE_COMPLEX: -1.777
Padj 0.0181265
  NES GOCC_SPINDLE: -1.395
Padj 0.0181579
  NES GOCC_AUTOPHAGOSOME_MEMBRANE: 1.734
  NES GOCC_DNA_POLYMERASE_COMPLEX: -1.786
  NES GOCC_P_BODY: -1.619
Padj 0.0188701
  NES GOCC_MHC_CLASS_I_PROTEIN_COMPLEX: 1.849
Padj 0.0193916
  NES GOCC_AZUROPHIL_GRANULE_MEMBRANE: 1.659
  NES GOCC_EXOCYTIC_VESICLE: 1.3878
Padj 0.0194501
  NES GOCC_EXON_EXON_JUNCTION_COMPLEX: -1.776
Padj 0.0201459
  NES GOCC_SPLICEOSOMAL_TRI_SNRNP_COMPLEX: -1.73
Padj 0.0211865
  NES GOCC_PLASMA_MEMBRANE_PROTEIN_COMPLEX: 1.208
Padj 0.0236958
  NES GOCC_SPINDLE_POLE: -1.485
Padj 0.0239917
  NES GOCC_CYTOPLASMIC_REGION: 1.358
Padj 0.0240328
  NES GOCC_RIBOSOME: -1.42
Padj 0.0260741
  NES GOCC_RNA_POLYMERASE_II_HOLOENZYME: -1.585
Padj 0.030494
  NES GOCC_PROTEIN_LIPID_COMPLEX: 1.7122
Padj 0.0306446
  NES GOCC_CENTROSOME: -1.299
Padj 0.0307775
  NES GOCC_PROTEASOME_CORE_COMPLEX: 1.722
  NES GOCC_PROTON_TRANSPORTING_V_TYPE_ATPASE_COMPLEX: 1.755
Padj 0.0312218
  NES GOCC_SNARE_COMPLEX: 1.596
Padj 0.0315137
  NES GOCC_BLOC_COMPLEX: 1.832
Padj 0.0329395
  NES GOCC_INTRACILIARY_TRANSPORT_PARTICLE_B: 1.825
Padj 0.0334435
  NES GOCC_POLYSOMAL_RIBOSOME: -1.667
Padj 0.0422332
  NES GOCC_AP_TYPE_MEMBRANE_COAT_ADAPTOR_COMPLEX: 1.673
Padj 0.0467153
  NES GOCC_9PLUS0_NON_MOTILE_CILIUM: 1.3799
Padj 0.0488031
  NES GOCC_PROTON_TRANSPORTING_ATP_SYNTHASE_COMPLEX: 1.779
Padj 0.0490653
  NES GOCC_SEX_CHROMOSOME: -1.646
Padj 0.0543003
  NES GOCC_U2_SNRNP: -1.648
Padj 0.0582082
  NES GOCC_ENDOCYTIC_VESICLE: 1.305
Padj 0.0591592
  NES GOCC_HIGH_DENSITY_LIPOPROTEIN_PARTICLE: 1.639
Padj 0.0619841
  NES GOCC_REPLISOME: -1.586
Padj 0.0629656
  NES GOCC_ANCHORED_COMPONENT_OF_MEMBRANE: 1.328
  NES GOCC_INTRINSIC_COMPONENT_OF_SYNAPTIC_VESICLE_MEMBRANE: 1.526
Padj 0.063611
  NES GOCC_MULTIVESICULAR_BODY: 1.4828
Padj 0.0667331
  NES GOCC_NURD_COMPLEX: -1.604
Padj 0.0742121
  NES GOCC_CYTOPLASMIC_MICROTUBULE: 1.415
Padj 0.0825356
  NES GOCC_PHOTORECEPTOR_CONNECTING_CILIUM: 1.523
Padj 0.0834337
  NES GOCC_REGION_OF_CYTOSOL: -1.574
Padj 0.0837675
  NES GOCC_FILOPODIUM_MEMBRANE: -1.564
